From ChEMBL document CHEMBL1155600, “Constituents of Boronia pinnata” (J Nat Prod, 2000)

How the values were obtained:
[1] = Cytotoxicity against human Raji cells assessed as cell viability at 32 nmol by trypan blue assay
[2] = Cytotoxicity against human Raji cells assessed as cell viability at 16 nmol by trypan blue assay
[3] = Cytotoxicity against human Raji cells assessed as cell viability at 3.2 nmol by trypan blue assay
[4] = Cytotoxicity against human Raji cells assessed as cell viability at 0.32 nmol by trypan blue assay

Row | Compound | viability at 32 nmol ([1]; Raji cells) [%] | viability at 16 nmol ([2]; Raji cells) [%] | viability at 3.2 nmol ([3]; Raji cells) [%] | viability at 0.32 nmol ([4]; Raji cells) [%] | viability at 32 nmol ([1]; raji) [%] | viability at 16 nmol ([2]; raji) [%] | viability at 3.2 nmol ([3]; raji) [%] | viability at 0.32 nmol ([4]; raji) [%]
1 | COc1cc(=O)n(C)c2c(OC)cccc12 | 60 | > 80 | > 80 | > 80 | – | – | – | –
2 | COc1cc(/C=C/C(=O)O)ccc1OCC=C(C)C [BOROPINIC ACID] | 70 | > 80 | > 80 | > 80 | – | – | – | –
3 | COc1cc2ccc(=O)oc2c2c1OC(C)(C)C=C2 | 60 | > 80 | > 80 | > 80 | – | – | – | –
4 | COc1ccc2c(OC)c3ccoc3nc2c1 [EVOLITRINE] | 60 | > 80 | > 80 | > 80 | – | – | – | –
5 | OC/C=C/c1ccc2c(c1)OCO2 | 70 | > 80 | > 80 | > 80 | – | – | – | –
6 | O=C(O)/C=C/c1ccc(O)cc1 [COUMARIC ACID] | 60 | > 80 | > 80 | > 80 | – | – | – | –
7 | CC(C)=CCc1cc(/C=C/C=O)ccc1O | 60 | > 80 | > 80 | > 80 | – | – | – | –
8 | COc1cc(C=O)cc(OC)c1O [SYRINGALDEHYDE] | 60 | > 80 | > 80 | > 80 | – | – | – | –
9 | COc1ccc2c(OC)c(CC=C(C)C)c(=O)[nH]c2c1OC [PRESKIMMIANINE] | 60 | > 80 | > 80 | > 80 | – | – | – | –
10 | COc1c2ccccc2nc2occc12 [DICTAMNINE] | – | – | – | – | 60 | > 80 | > 80 | > 80
